The source made the active and inactive calls. No cut-off for these calls is given here.
Assays:
[1] = Half life in human serum; format: ADME, cell-free
Mu-type opioid receptor [2] = biological target: T1, Mu-type opioid receptor (Homo sapiens, UniProt P35372); assay: Displacement of [3H]DAMGO from human recombinant mu-opioid receptor expressed in CHO cells after 60 mins by liquid scintillation assay; format: cell-based
Mu-type opioid receptor [3] = biological target: T1, Mu-type opioid receptor; assay: Agonist activity at human recombinant mu-opioid receptor expressed in CHO cells after 60 mins by [35S]GTPgammaS binding assay; format: functional, cell-based

T1 sequence (P35372 whole entry): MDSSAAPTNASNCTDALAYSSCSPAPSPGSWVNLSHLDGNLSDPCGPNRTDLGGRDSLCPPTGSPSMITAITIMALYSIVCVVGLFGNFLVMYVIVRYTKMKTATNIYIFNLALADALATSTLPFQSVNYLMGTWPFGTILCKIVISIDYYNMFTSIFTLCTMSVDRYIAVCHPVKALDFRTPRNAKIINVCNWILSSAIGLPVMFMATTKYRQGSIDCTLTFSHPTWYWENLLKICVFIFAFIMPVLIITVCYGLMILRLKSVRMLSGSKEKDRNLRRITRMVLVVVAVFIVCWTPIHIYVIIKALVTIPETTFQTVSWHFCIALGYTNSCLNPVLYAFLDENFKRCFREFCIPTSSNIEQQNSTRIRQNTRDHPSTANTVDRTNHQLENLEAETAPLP

half-life [1]: 41 h
IC50 (Mu-type opioid receptor [2]): 3200 nM
Ki (Mu-type opioid receptor [2]): 400 nM
Activity (Mu-type opioid receptor [3]): inactive
Compound: CC(C)C[C@H](CN(C=O)[C@H](Cc1ccccc1)CN(C=O)CCN(C=O)CCN(C=O)[C@@H](CN)Cc1ccc(O)cc1)NS(C)(=O)=O
